Reference: ChEMBL document CHEMBL1201861, “Genomics of Drug Sensitity in Cancer screening data, Wellcome Trust Sanger Institute”

What was measured:
Experiment in all cases: cells
Format in all cases: functional, cell-based
Conditions in all cases: Homo sapiens
GT3TKB = system: GT3TKB;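 further: growth inhibition of the cell line, read out with a cell viability assay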
SH-4 = system: SH-4;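 further: growth inhibition of SH-4 cells, read out with a cell viability assay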
GOTO = system: GOTO;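 further: growth inhibition of GOTO cells, read out by a cell viability assay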
UACC-257 = system: UACC-257
A2058 = system: A2058;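 further: reduction of A2058 cell growth, read out with a viability assay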
A101D = system: A101D;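 further: growth inhibition of the cell line, measured with a viability assay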
L-540 = system: L-540;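 further: growth inhibition of the human L-540 cell line, read out with a viability assay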
NCI-H2170 = system: NCI-H2170;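 further: cell viability assay measuring growth inhibition of human NCI-H2170 cancer cells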
BE-13 = system: BE-13;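 further: growth inhibition of human BE-13 cells, measured with a cell viability assay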
ES7 = system: ES7;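 further: growth inhibition of cultured human ES7 cells, read out as cell viability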
LB373-MEL-D = system: LB373-MEL-D;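 further: growth inhibition of the cell line, read out in a cell viability assay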
NCI-H446 = system: NCI-H446;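 further: growth inhibition of NCI-H446 cells determined by a cell viability assay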
MMAC-SF = system: MMAC-SF;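 further: growth inhibition of human MMAC-SF cells, read out with a cell viability assay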
SF-539 = system: SF-539;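 further: Read-out is a cell viability assay, with IC50 reflecting inhibition of cell growth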
ALL-PO = system: ALL-PO;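 further: growth inhibition of ALL-PO cells, read out by a cell viability assay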
CP66-MEL = system: CP66-MEL;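 further: growth inhibition of CP66-MEL cells determined in a cell viability assay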
EM-2 = system: EM-2;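 further: growth inhibition of EM-2 cells, read out with a cell viability assay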
NCI-H322M = system: NCI-H322M;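 further: cell viability assay measuring inhibition of growth of human NCI-H322M cells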
VA-ES-BJ = system: VA-ES-BJ;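 further: growth inhibition of the VA-ES-BJ cell line, read out by a cell viability assay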
KYSE-410 = system: KYSE-410;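 further: growth inhibition of KYSE-410 cells, measured through a cell viability readout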
RMG-I = system: RMG-I;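 further: growth inhibition of human RMG-I cells, read out with a cell viability assay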
NB10 = system: NB10;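 further: growth inhibition of NB10 cells, read out by a cell viability assay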
ML-2 = system: ML-2;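 further: growth inhibition of ML-2 cells, measured with a cell viability readout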
KE-37 = system: KE-37;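 further: growth inhibition of KE-37 cells, read out with a cell viability assay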
NCI-H1299 = system: NCI-H1299;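 further: growth inhibition of human NCI-H1299 cells, read out by a cell viability assay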
RXF 393 = system: RXF 393;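 further: growth inhibition of human RXF 393 cells, read out with a cell viability assay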
no-11 = system: no-11;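 further: growth inhibition of human NO-11 cells, read out with a cell viability assay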
NB5 = system: NB5;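 further: growth inhibition of NB5 cells, read out as cell viability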
NCI-H1650 = system: NCI-H1650;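 further: growth inhibition of human NCI-H1650 cells measured by a cell viability assay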
EW-18 = system: EW-18;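 further: growth inhibition of EW-18 cells, read out by a cell viability assay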
SK-MEL-2 = system: SK-MEL-2;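 further: growth inhibition of human SK-MEL-2 cells measured with a cell viability assay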
SJSA-1 = system: SJSA-1;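 further: growth inhibition of human SJSA-1 cells, read out through a cell viability measurement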
HL-60 = system: HL-60;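 further: growth inhibition of human HL-60 cells, read out with a cell viability assay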
A2780 = system: A2780;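 further: growth inhibition of A2780 cells, read out with a cell viability assay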
EW-11 = system: EW-11;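 further: growth inhibition of human EW-11 cells, measured with a cell viability assay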
OVCAR-5 = system: OVCAR-5;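 further: growth inhibition of human OVCAR-5 cells, read out with a cell viability assay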
COR-L23 = system: COR-L23;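 further: cell viability assay measuring how strongly compounds suppress growth of COR-L23 cells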
HT = system: HT
MEG-01 = system: MEG-01;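 further: growth inhibition of MEG-01 cells, read out by a cell viability assay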
IST-MEL1 = system: IST-MEL1;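 further: growth inhibition of the cell line, read out with a cell viability assay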
K562 = system: K562
LB2241-RCC = system: LB2241-RCC;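 further: cell viability assay measuring how strongly the cultured human renal carcinoma line is prevented from growing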
MN-60 = system: MN-60;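 further: growth inhibition of the MN-60 cell line, determined with a cell viability assay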
BT-474 = system: BT-474
KNS-42 = system: KNS-42;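 further: growth inhibition of KNS-42 cells, read out with a cell viability assay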
TE-10 = system: TE-10;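 further: growth inhibition of TE-10 cells, measured by a cell viability assay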
L-363 = system: L-363
IST-MES1 = system: IST-MES1;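 further: growth inhibition of IST-MES1 cells, measured with a cell viability assay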
COLO-800 = system: COLO-800;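 further: growth inhibition of COLO-800 cells, read out with a cell viability assay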
LS-123 = system: LS-123
Becker = system: Becker;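 further: growth inhibition of Becker cells, read out with a cell viability assay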
GI-ME-N = system: GI-ME-N;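 further: growth inhibition of human GI-ME-N cells, read out with a cell viability assay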
PSN1 = system: PSN1;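 further: suppression of growth of human PSN1 cells, read out by a cell viability assay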
KNS-81-FD = system: KNS-81-FD
COLO-320-HSR = system: COLO-320-HSR
NTERA-2-cl-D1 = system: NTERA-2-cl-D1
ES4 = system: ES4
NKM-1 = system: NKM-1
AM-38 = system: AM-38
KM-H2 = system: KM-H2
D-263MG = system: D-263MG
SF-268 = system: SF-268
SK-OV-3 = system: SK-OV-3
P12-Ichikawa = system: P12-Ichikawa
SNU-5 = system: SNU-5
DU-4475 = system: DU-4475

`CCNC(=O)c1noc(-c2cc(C(C)C)c(O)cc2O)c1-c1ccc(CN2CCOCC2)cc1` [LUMINESPIB] showed an IC50 (GT3TKB) of 12 nM, an IC50 (SH-4) of 41.4 nM and an IC50 (GOTO) of 172 nM. It also gave an IC50 (UACC-257) of 75.1 nM, an IC50 (A2058) of 29.3 nM and an IC50 (A101D) of 19.9 nM. For the same compound, the IC50 (L-540) was > 256 nM, the IC50 (NCI-H2170) was 163 nM and the IC50 (BE-13) was > 256 nM. The IC50 (ES7) was 33.7 nM, the IC50 (LB373-MEL-D) was > 256 nM and the IC50 (NCI-H446) was > 256 nM. The IC50 (MMAC-SF) was 43 nM, the IC50 (SF-539) was > 256 nM and the IC50 (ALL-PO) was 17.3 nM. For the same compound, the IC50 (CP66-MEL) was 78.9 nM, the IC50 (EM-2) was > 256 nM and the IC50 (NCI-H322M) was > 256 nM. The IC50 (VA-ES-BJ) was 42.9 nM, the IC50 (KYSE-410) was 15.9 nM and the IC50 (RMG-I) was > 256 nM. For the same compound, the IC50 (NB10) was 237 nM, the IC50 (ML-2) was 36.7 nM and the IC50 (KE-37) was 56.8 nM. For the same compound, the IC50 (NCI-H1299) was 11.5 nM, the IC50 (RXF 393) was 8.6 nM and the IC50 (no-11) was 30.5 nM. It also gave an IC50 (NB5) of 36.1 nM, an IC50 (NCI-H1650) of 16.5 nM and an IC50 (EW-18) of 106 nM. It also gave an IC50 (SK-MEL-2) of 125 nM, an IC50 (SJSA-1) of 20.4 nM and an IC50 (HL-60) of 18.1 nM. It also gave an IC50 (A2780) of 17.1 nM, an IC50 (EW-11) of 75.4 nM and an IC50 (OVCAR-5) of 18.1 nM. It also gave an IC50 (COR-L23) of 27.1 nM, an IC50 (HT) of 226 nM and an IC50 (MEG-01) of 173 nM. It also gave an IC50 (IST-MEL1) of 8.52 nM, an IC50 (K562) of 53.9 nM and an IC50 (LB2241-RCC) of 36.4 nM. For the same compound, the IC50 (MN-60) was 242 nM, the IC50 (BT-474) was 70.6 nM and the IC50 (KNS-42) was > 256 nM. The IC50 (TE-10) was 19.8 nM, the IC50 (L-363) was 69 nM and the IC50 (IST-MES1) was > 256 nM. For the same compound, the IC50 (COLO-800) was > 256 nM, the IC50 (LS-123) was 24.4 nM and the IC50 (Becker) was 15.1 nM. It also gave an IC50 (GI-ME-N) of 74.3 nM, an IC50 (PSN1) of 3.18 nM and an IC50 (KNS-81-FD) of 69.2 nM. For the same compound, the IC50 (COLO-320-HSR) was 185 nM, the IC50 (NTERA-2-cl-D1) was 13.4 nM and the IC50 (ES4) was 15 nM. For the same compound, the IC50 (NKM-1) was 5.47 nM, the IC50 (AM-38) was 13 nM and the IC50 (KM-H2) was 72.4 nM. The IC50 (D-263MG) was 56.8 nM, the IC50 (SF-268) was 34 nM and the IC50 (SK-OV-3) was 6.3 nM. For the same compound, the IC50 (P12-Ichikawa) was > 256 nM, the IC50 (SNU-5) was > 256 nM and the IC50 (DU-4475) was 21.5 nM.
With `O=c1[nH]c2ccccc2n1C1CCN(Cc2ccc(-c3nc4cc5[nH]cnc5cc4nc3-c3ccccc3)cc2)CC1` the IC50 (GT3TKB) was > 2560 nM, the IC50 (SH-4) was > 2560 nM and the IC50 (GOTO) was > 2560 nM. The IC50 (UACC-257) was > 2560 nM, the IC50 (A2058) was > 2560 nM and the IC50 (A101D) was > 2560 nM. For the same compound, the IC50 (L-540) was > 2560 nM, the IC50 (NCI-H2170) was > 2560 nM and the IC50 (BE-13) was > 2560 nM. The IC50 (ES7) was 1350 nM, the IC50 (LB373-MEL-D) was > 2560 nM and the IC50 (NCI-H446) was > 2560 nM. The IC50 (MMAC-SF) was > 2560 nM, the IC50 (SF-539) was > 2560 nM and the IC50 (ALL-PO) was > 2560 nM. The IC50 (CP66-MEL) was > 2560 nM, the IC50 (EM-2) was > 2560 nM and the IC50 (NCI-H322M) was > 2560 nM. The IC50 (VA-ES-BJ) was > 2560 nM, the IC50 (KYSE-410) was > 2560 nM and the IC50 (RMG-I) was > 2560 nM. For the same compound, the IC50 (NB10) was > 2560 nM, the IC50 (ML-2) was > 2560 nM and the IC50 (KE-37) was 1840 nM. The IC50 (NCI-H1299) was > 2560 nM, the IC50 (RXF 393) was > 2560 nM and the IC50 (no-11) was > 2560 nM. The IC50 (NB5) was > 2560 nM, the IC50 (NCI-H1650) was > 2560 nM and the IC50 (EW-18) was > 2560 nM. The IC50 (SK-MEL-2) was > 2560 nM, the IC50 (SJSA-1) was > 2560 nM and the IC50 (HL-60) was > 2560 nM. The IC50 (A2780) was > 2560 nM, the IC50 (EW-11) was > 2560 nM and the IC50 (OVCAR-5) was > 2560 nM. For the same compound, the IC50 (COR-L23) was > 2560 nM, the IC50 (HT) was > 2560 nM and the IC50 (MEG-01) was > 2560 nM. The IC50 (IST-MEL1) was > 2560 nM, the IC50 (K562) was > 2560 nM and the IC50 (LB2241-RCC) was > 2560 nM. The IC50 (MN-60) was > 2560 nM, the IC50 (BT-474) was > 2560 nM and the IC50 (KNS-42) was > 2560 nM. The IC50 (TE-10) was > 2560 nM, the IC50 (L-363) was > 2560 nM and the IC50 (IST-MES1) was > 2560 nM. The IC50 (COLO-800) was > 2560 nM, the IC50 (LS-123) was > 2560 nM and the IC50 (Becker) was > 2560 nM. The IC50 (GI-ME-N) was > 2560 nM, the IC50 (PSN1) was > 2560 nM and the IC50 (KNS-81-FD) was > 2560 nM. For the same compound, the IC50 (COLO-320-HSR) was > 2560 nM, the IC50 (NTERA-2-cl-D1) was > 2560 nM and the IC50 (ES4) was > 2560 nM. For the same compound, the IC50 (NKM-1) was > 2560 nM, the IC50 (AM-38) was > 2560 nM and the IC50 (KM-H2) was > 2560 nM. The IC50 (D-263MG) was > 2560 nM, the IC50 (SF-268) was > 2560 nM and the IC50 (SK-OV-3) was > 2560 nM. The IC50 (P12-Ichikawa) was > 2560 nM, the IC50 (SNU-5) was > 2560 nM and the IC50 (DU-4475) was > 2560 nM.
